Data published in the NIST ThermoML archive (doi:10.1016/j.fluid.2010.05.019).
Numbers after ± are expanded uncertainties. One block for each compound: values may come before it.

How the values were obtained:
[1] = 298.15 K, Liquid; for electrical conductivity: 101 kPa, Alternating current cell with electrodes; for viscosity / mass density: 101.33 kPa; for viscosity: Cone and plate viscometry; for mass density: Pycnometric method
[2] = wn = mass fraction of the nth substance listed; conditions: 298.15 K, 101 kPa, Liquid, Alternating current cell with electrodes

electrical conductivity [1]: 0.586 ± 0.047 S/m
viscosity [1]: 18 mPa·s
mass density [1]: 1014.4 ± 60 kg/m3
Structure (SMILES): CC[NH+](C(C)C)C(C)C.O=C[O-] [ethyldiisopropylammonium formate]

electrical conductivity ([2]; w2 = 0): 0.586 ± 0.047 S/m
electrical conductivity ([2]; w2 = 0.0625): 0.88 ± 0.07 S/m
electrical conductivity ([2]; w2 = 0.1176): 1.13 ± 0.091 S/m
electrical conductivity ([2]; w2 = 0.1667): 1.39 ± 0.11 S/m
electrical conductivity ([2]; w2 = 0.2105): 1.67 ± 0.13 S/m
electrical conductivity ([2]; w2 = 0.25): 1.96 ± 0.16 S/m
electrical conductivity ([2]; w2 = 0.3182): 2.4 ± 0.19 S/m
electrical conductivity ([2]; w2 = 0.3478): 2.63 ± 0.21 S/m
electrical conductivity ([2]; w2 = 0.4231): 3.11 ± 0.25 S/m
electrical conductivity ([2]; w2 = 0.4643): 3.36 ± 0.27 S/m
electrical conductivity ([2]; w2 = 0.5): 3.51 ± 0.28 S/m
electrical conductivity ([2]; w2 = 0.5588): 3.86 ± 0.31 S/m
electrical conductivity ([2]; w2 = 0.5833): 3.93 ± 0.31 S/m
electrical conductivity ([2]; w2 = 0.6053): 3.96 ± 0.32 S/m
electrical conductivity ([2]; w2 = 0.625): 3.97 ± 0.32 S/m
electrical conductivity ([2]; w2 = 0.6429): 3.97 ± 0.32 S/m
electrical conductivity ([2]; w2 = 0.6591): 3.96 ± 0.32 S/m
electrical conductivity ([2]; w2 = 0.7): 3.97 ± 0.32 S/m
electrical conductivity ([2]; w2 = 0.7115): 3.97 ± 0.32 S/m
electrical conductivity ([2]; w2 = 0.7222): 3.96 ± 0.32 S/m
Structure (SMILES): CC[NH+](C(C)C)C(C)C.O=C[O-] [ethyldiisopropylammonium formate] + O

electrical conductivity [1]: 0.594 ± 0.048 S/m
viscosity [1]: 30.2 mPa·s
mass density [1]: 1054.3 ± 60 kg/m3
Structure (SMILES): C1CC[NH2+]C1.CC(=O)[O-] [pyrrolidinium acetate]

electrical conductivity ([2]; w2 = 0): 0.594 ± 0.048 S/m
electrical conductivity ([2]; w2 = 0.0474): 0.685 ± 0.055 S/m
electrical conductivity ([2]; w2 = 0.0906): 0.716 ± 0.057 S/m
electrical conductivity ([2]; w2 = 0.1661): 1.04 ± 0.083 S/m
electrical conductivity ([2]; w2 = 0.1994): 1.11 ± 0.089 S/m
electrical conductivity ([2]; w2 = 0.2585): 1.53 ± 0.12 S/m
electrical conductivity ([2]; w2 = 0.3095): 1.93 ± 0.15 S/m
electrical conductivity ([2]; w2 = 0.3539): 2.32 ± 0.18 S/m
electrical conductivity ([2]; w2 = 0.393): 2.64 ± 0.21 S/m
electrical conductivity ([2]; w2 = 0.4585): 3.24 ± 0.26 S/m
electrical conductivity ([2]; w2 = 0.499): 3.52 ± 0.28 S/m
electrical conductivity ([2]; w2 = 0.5546): 3.92 ± 0.31 S/m
electrical conductivity ([2]; w2 = 0.599): 4.09 ± 0.33 S/m
electrical conductivity ([2]; w2 = 0.6543): 4.3 ± 0.34 S/m
electrical conductivity ([2]; w2 = 0.7007): 4.37 ± 0.35 S/m
electrical conductivity ([2]; w2 = 0.7554): 4.43 ± 0.35 S/m
electrical conductivity ([2]; w2 = 0.8033): 4.23 ± 0.34 S/m
electrical conductivity ([2]; w2 = 0.8328): 4.02 ± 0.32 S/m
Structure (SMILES): C1CC[NH2+]C1.CC(=O)[O-] [pyrrolidinium acetate] + O

electrical conductivity [1]: 3.29 ± 0.26 S/m
viscosity [1]: 2.5 mPa·s
Structure (SMILES): C1CC[NH2+]C1.O=C[O-] [pyrrolidinium formate]

electrical conductivity ([2]; w2 = 0): 3.29 ± 0.26 S/m
electrical conductivity ([2]; w2 = 0.0251): 4.01 ± 0.32 S/m
electrical conductivity ([2]; w2 = 0.0501): 4.44 ± 0.35 S/m
electrical conductivity ([2]; w2 = 0.0907): 4.95 ± 0.4 S/m
electrical conductivity ([2]; w2 = 0.1666): 5.99 ± 0.48 S/m
electrical conductivity ([2]; w2 = 0.2304): 6.71 ± 0.54 S/m
electrical conductivity ([2]; w2 = 0.2853): 7.2 ± 0.6 S/m
electrical conductivity ([2]; w2 = 0.3329): 7.54 ± 0.6 S/m
electrical conductivity ([2]; w2 = 0.3745): 7.73 ± 0.62 S/m
electrical conductivity ([2]; w2 = 0.4113): 7.83 ± 0.63 S/m
electrical conductivity ([2]; w2 = 0.4439): 7.83 ± 0.63 S/m
electrical conductivity ([2]; w2 = 0.4995): 7.77 ± 0.62 S/m
electrical conductivity ([2]; w2 = 0.5647): 7.33 ± 0.59 S/m
electrical conductivity ([2]; w2 = 0.5828): 7.04 ± 0.56 S/m
electrical conductivity ([2]; w2 = 0.6662): 6.36 ± 0.51 S/m
electrical conductivity ([2]; w2 = 0.7055): 5.92 ± 0.47 S/m
electrical conductivity ([2]; w2 = 0.7496): 5.36 ± 0.43 S/m
electrical conductivity ([2]; w2 = 0.7917): 4.48 ± 0.36 S/m
electrical conductivity ([2]; w2 = 0.8607): 3.18 ± 0.25 S/m
electrical conductivity ([2]; w2 = 0.9018): 2.13 ± 0.17 S/m
electrical conductivity ([2]; w2 = 0.9106): 1.88 ± 0.15 S/m
Structure (SMILES): C1CC[NH2+]C1.O=C[O-] [pyrrolidinium formate] + O

electrical conductivity [1]: 0.186 ± 0.015 S/m
mass density [1]: 972.1 ± 60 kg/m3
Structure (SMILES): C1CC[NH2+]C1.CCCCCCC(=O)[O-] [pyrrolidinium heptanoate]

The next lines start with the compound.

Structure (SMILES): Cc1ccc[n+](C)c1C.O=C[O-] [1,2,3-trimethylpyridinium formate]
electrical conductivity [1]: 0.68 ± 0.054 S/m
viscosity [1]: 10 mPa·s
mass density [1]: 1167.6 ± 60 kg/m3

Structure (SMILES): Cc1ccc[n+](C)c1C.O=C[O-] [1,2,3-trimethylpyridinium formate] + O
electrical conductivity ([2]; w2 = 0): 0.68 ± 0.054 S/m
electrical conductivity ([2]; w2 = 0.0476): 0.837 ± 0.067 S/m
electrical conductivity ([2]; w2 = 0.0909): 0.963 ± 0.077 S/m
electrical conductivity ([2]; w2 = 0.1666): 1.33 ± 0.11 S/m
electrical conductivity ([2]; w2 = 0.1999): 1.48 ± 0.12 S/m
electrical conductivity ([2]; w2 = 0.2592): 1.88 ± 0.15 S/m
electrical conductivity ([2]; w2 = 0.3103): 2.31 ± 0.18 S/m
electrical conductivity ([2]; w2 = 0.3547): 2.69 ± 0.21 S/m
electrical conductivity ([2]; w2 = 0.4117): 3.23 ± 0.26 S/m
electrical conductivity ([2]; w2 = 0.4594): 3.62 ± 0.29 S/m
electrical conductivity ([2]; w2 = 0.4999): 3.95 ± 0.32 S/m
electrical conductivity ([2]; w2 = 0.5555): 4.37 ± 0.35 S/m
electrical conductivity ([2]; w2 = 0.5999): 4.65 ± 0.37 S/m
electrical conductivity ([2]; w2 = 0.6551): 4.74 ± 0.38 S/m
electrical conductivity ([2]; w2 = 0.7014): 4.75 ± 0.38 S/m
electrical conductivity ([2]; w2 = 0.7499): 4.75 ± 0.38 S/m
electrical conductivity ([2]; w2 = 0.7999): 4.51 ± 0.36 S/m
electrical conductivity ([2]; w2 = 0.8571): 3.85 ± 0.31 S/m
electrical conductivity ([2]; w2 = 0.9): 3.13 ± 0.25 S/m
electrical conductivity ([2]; w2 = 0.95): 1.93 ± 0.15 S/m

Structure (SMILES): Cc1cccc[n+]1C.O=C[O-] [1,2-dimethylpyridinium formate]
electrical conductivity [1]: 1.04 ± 0.083 S/m
viscosity [1]: 2.61 mPa·s
mass density [1]: 1020.9 ± 60 kg/m3

Structure (SMILES): Cc1cccc[n+]1C.O=C[O-] [1,2-dimethylpyridinium formate] + O
electrical conductivity ([2]; w2 = 0): 1.04 ± 0.083 S/m
electrical conductivity ([2]; w2 = 0.051): 1.37 ± 0.11 S/m
electrical conductivity ([2]; w2 = 0.0908): 1.64 ± 0.13 S/m
electrical conductivity ([2]; w2 = 0.1665): 2.21 ± 0.18 S/m
electrical conductivity ([2]; w2 = 0.2854): 3.27 ± 0.26 S/m
electrical conductivity ([2]; w2 = 0.333): 3.77 ± 0.3 S/m
electrical conductivity ([2]; w2 = 0.4114): 4.52 ± 0.36 S/m
electrical conductivity ([2]; w2 = 0.4441): 4.74 ± 0.38 S/m
electrical conductivity ([2]; w2 = 0.4997): 5.26 ± 0.42 S/m
electrical conductivity ([2]; w2 = 0.5451): 5.56 ± 0.44 S/m
electrical conductivity ([2]; w2 = 0.6151): 5.98 ± 0.48 S/m
electrical conductivity ([2]; w2 = 0.6549): 6.16 ± 0.49 S/m
electrical conductivity ([2]; w2 = 0.7056): 6.23 ± 0.5 S/m
electrical conductivity ([2]; w2 = 0.7617): 6 ± 0.48 S/m
electrical conductivity ([2]; w2 = 0.7998): 5.68 ± 0.45 S/m
electrical conductivity ([2]; w2 = 0.857): 4.85 ± 0.39 S/m
electrical conductivity ([2]; w2 = 0.8748): 4.51 ± 0.36 S/m
electrical conductivity ([2]; w2 = 0.8888): 4.21 ± 0.34 S/m
electrical conductivity ([2]; w2 = 0.8999): 3.93 ± 0.31 S/m
electrical conductivity ([2]; w2 = 0.909): 3.7 ± 0.3 S/m

Structure (SMILES): CCCC(C)[NH3+].O=C[O-] (centres undefined) [2-pentanaminium formate]
electrical conductivity [1]: 0.036 ± 0.003 S/m
mass density [1]: 1163 ± 60 kg/m3

Structure (SMILES): CCCC(C)[NH3+].O=C[O-] (centres undefined) [2-pentanaminium formate] + O
electrical conductivity ([2]; w2 = 0): 0.036 ± 0.003 S/m
electrical conductivity ([2]; w2 = 0.056): 0.121 ± 0.01 S/m
electrical conductivity ([2]; w2 = 0.1005): 0.197 ± 0.016 S/m
electrical conductivity ([2]; w2 = 0.1623): 0.342 ± 0.027 S/m
electrical conductivity ([2]; w2 = 0.2793): 0.847 ± 0.068 S/m
electrical conductivity ([2]; w2 = 0.3676): 1.38 ± 0.11 S/m
electrical conductivity ([2]; w2 = 0.4366): 1.92 ± 0.15 S/m
electrical conductivity ([2]; w2 = 0.5375): 2.8 ± 0.22 S/m
electrical conductivity ([2]; w2 = 0.6078): 3.3 ± 0.26 S/m
electrical conductivity ([2]; w2 = 0.6595): 3.51 ± 0.28 S/m
electrical conductivity ([2]; w2 = 0.6992): 3.6 ± 0.29 S/m
electrical conductivity ([2]; w2 = 0.7561): 3.57 ± 0.29 S/m
electrical conductivity ([2]; w2 = 0.7999): 3.4 ± 0.27 S/m
electrical conductivity ([2]; w2 = 0.88): 2.93 ± 0.23 S/m
electrical conductivity ([2]; w2 = 0.9): 2.73 ± 0.22 S/m
electrical conductivity ([2]; w2 = 0.91): 2.38 ± 0.19 S/m
electrical conductivity ([2]; w2 = 0.925): 2.13 ± 0.17 S/m
electrical conductivity ([2]; w2 = 0.933): 1.94 ± 0.15 S/m
electrical conductivity ([2]; w2 = 0.943): 1.71 ± 0.14 S/m
electrical conductivity ([2]; w2 = 0.954): 1.47 ± 0.12 S/m
electrical conductivity ([2]; w2 = 0.967): 1.13 ± 0.09 S/m
electrical conductivity ([2]; w2 = 0.982): 0.677 ± 0.054 S/m
